In general, IC50 refers to the concentration that inhibits the measured activity by half.

This assay deals with Ovcar3-GTL catenae. As to the kind of experiment: Ovcar3-GTL catena drug sensitivity / proliferation screen (alamarBlue, 384-well). Background: Alamar Blue is a resazurin reagent that responds to reducing activity.
Setting [1] is: ratio of IC50 day 6 to day 1, Ovcar3-GTL catenae.
The mark [2] stands for this setting: read-out: IC50 (μM) Addition on Day 1; Ovcar3-GTL catenae; compound added one day after seeding (cells predominantly lacking a glycocalyx).
Setting [3] is: read-out: IC50 (μM) Addition on Day 6; Ovcar3-GTL catenae; compound added six days after seeding (established or substantial glycocalyx).
The mark [4] stands for this setting: read-out: IC50 (μM) No coat, pathway-specific inhibitors; catena cells without glycocalyx coat.
Where [5] appears, read: read-out: IC50 (μM) With coat, pathway-specific inhibitors; catena cells with glycocalyx coat.
The mark [6] stands for this setting: increased resistance of catena cells with glycocalyx coat versus no coat.
Where [7] appears, read: read-out: IC50 (μM) With coat; pathway-specific inhibitors; catena cells with glycocalyx coat.
Setting [8] is: 24 h, read-out: IC50 (μM) Addition on Day 1, Ovcar3-GTL catenae; compound added one day after seeding (cells predominantly lacking a glycocalyx).
[9] abbreviates: 144 h, read-out: IC50 (μM) Addition on Day 6, Ovcar3-GTL catenae; compound added six days after seeding (established or substantial glycocalyx).

Counter-ions that a name gives are not always drawn. Like-named read-outs stand apart in the source and are kept apart here. Some results are limits rather than exact numbers.

For `C=CCNC1=C2C[C@@H](C)C[C@H](OC)[C@H](O)[C@@H](C)/C=C(\C)[C@H](OC(N)=O)[C@@H](OC)/C=C\C=C(/C)C(=O)NC(=CC1=O)C2=O` [17AAG], the “Increase in Resistance Day6/Day 1” value under setting [1] was 33 fold. For the same molecule, the IC50 under setting [2] was 0.012 µM and the IC50 under setting [3] stood at 0.4 µM.

In the case of `C[C@]1(c2nc3c(C(N)=O)cccc3[nH]2)CCCN1` [ABT-888 (Veliparib), Veliparib], the IC50 is 13.4 µM under setting [4] and more than 25 µM under setting [5].

Take `Cc1ccc(C(=O)Nc2ccc(CN3CCN(C)CC3)c(C(F)(F)F)c2)cc1C#Cc1cnc2cccnn12` [AP24534 (Ponatinib), Ponatinib]: the Fold resistance under setting [6] came out at 16 fold. The IC50 is 0.78 µM (read-out: IC50 (μM) No coat) and 13.4 µM (read-out: IC50 (μM) With coat).

Turning to `COc1cc2nccc(Oc3ccc(NC(=O)Nc4cc(C)on4)c(Cl)c3)c2cc1OC` [AV-951 (Tivozanib), Tivozanib], the IC50 is 13.4 µM under setting [4] and more than 25 µM under setting [5].

As to `CNC(=O)c1cc(Oc2ccc(NC(=O)Nc3ccc(Cl)c(C(F)(F)F)c3)c(F)c2)ccn1` [BAY 73-4506 (Regorafenib), Regorafenib], the half-maximal inhibitory concentration (IC50) is 13.4 µM under setting [4] and 13.4 µM under setting [5].

For `Cn1c(=O)n(-c2ccc(C(C)(C)C#N)cc2)c2c3cc(-c4cnc5ccccc5c4)ccc3ncc21` [BEZ235 (NVP-BEZ235)], the IC50 under setting [4] was determined as 0.05 µM and the IC50 under setting [5] is more than 25 µM.

Consider `CC[C@@H]1C(=O)N(C)c2cnc(Nc3ccc(C(=O)NC4CCN(C)CC4)cc3OC)nc2N1C1CCCC1` [BI 2536], for which the 50% inhibitory concentration (IC50) is, setting by setting: (read-out: IC50 (μM) No coat) less than 0.001 µM; (read-out: IC50 (μM) With coat) 13.4 µM.

Regarding `COC(=O)c1ccc2c(c1)NC(=O)/C2=C(\Nc1ccc(N(C)C(=O)CN2CCN(C)CC2)cc1)c1ccccc1` [BIBF1120 (Vargatef)], the IC50 worked out at 13.4 µM under setting [4] and 13.4 µM under setting [5].

The molecule `CN(C)C/C=C/C(=O)Nc1cc2c(Nc3ccc(F)c(Cl)c3)ncnc2cc1O[C@H]1CCOC1` [BIBW2992 (Tovok)] had a Fold resistance under setting [6] of 4 fold. Also, the IC50 is, setting by setting: under setting [4], 3.14 µM; under setting [5], 13.4 µM.

Molecule `CN1CCN(c2ccc3nc(-c4c(N)c5c(F)cccc5[nH]c4=O)[nH]c3c2)CC1` [CHIR-258 (Dovitinib), Dovitinib] showed a Fold resistance under setting [6] of 4 fold. Also, the concentration for half-maximal inhibition (IC50) is 3.14 µM under setting [4] and 13.4 µM under setting [5].

On to `O=C(NOCC1CC1)c1ccc(F)c(F)c1Nc1ccc(I)cc1Cl` [CI-1040 (PD184352)], for which the IC50 under setting [4] was more than 25 µM and the IC50 under setting [5] is more than 25 µM.

Regarding `C/C(=C\c1csc(C)n1)[C@@H]1C[C@@H]2O[C@]2(C)CCC[C@H](C)[C@H](O)[C@@H](C)C(=O)C(C)(C)[C@@H](O)CC(=O)O1` [Epo-B], under setting [1], the “Increase in Resistance Day6/Day 1” value was 4,000 fold. The IC50 reads like this: under setting [2], 0.025 µM; under setting [3], more than 100 µM.

On to `CS(=O)(=O)c1ccc(C(=O)Nc2ccc(Cl)c(-c3ccccn3)c2)c(Cl)c1` [GDC-0449 (Vismodegib), Vismodegib], for which the half-maximal inhibitory concentration (IC50) reads like this: under setting [4], more than 25 µM; under setting [5], more than 25 µM.

With `OCCn1cc(-c2ccc3c(c2)CC/C3=N\O)c(-c2ccncc2)n1` [GDC-0879], the 50% inhibitory concentration (IC50) by setting is: under setting [4], more than 25 µM; under setting [5], more than 25 µM.

Under setting [6], `CS(=O)(=O)N1CCN(Cc2cc3nc(-c4cccc5[nH]ncc45)nc(N4CCOCC4)c3s2)CC1` [GDC-0941] came in with a Fold resistance of more than 8 fold. For the same molecule, the IC50 was 3.14 µM under setting [4] and more than 25 µM under setting [5].

`CCc1cc(Nc2nccc(-c3c(-c4ccc(OC)c(C(=O)Nc5c(F)cccc5F)c4)nc4ccccn34)n2)c(OC)cc1N1CCC(N2CCN(S(C)(=O)=O)CC2)CC1` [GSK1904529A]: the half-inhibitory concentration (IC50) under setting [4] was more than 25 µM and the IC50 under setting [7] is more than 25 µM.

Under setting [6], `Cn1cc(-c2ccc3nnc(C(F)(F)c4ccc5ncccc5c4)n3n2)cn1` [JNJ-38877605] came in with a Fold resistance of more than 8 fold. The IC50 runs as follows: under setting [4], 3.14 µM; under setting [7], more than 25 µM.

As for `O=c1cc(-c2cccc3c2Sc2ccccc2S3)oc(N2CCOCC2)c1` [KU-55933], the IC50 is 13.4 µM under setting [4] and 13.4 µM under setting [5].

As for `O=C(/C=C/c1ccc(CN(CCO)CCc2c[nH]c3ccccc23)cc1)NO` [LAQ824 (NVP-LAQ824, Dacinostat), Dacinostat], under setting [6], the Fold resistance was found to be 16 fold. Also, the half-maximal inhibitory concentration (IC50) runs as follows: under setting [4], 0.01 µM; under setting [5], less than 0.2 µM; under setting [7], 0.2 µM.

As for `Cc1[nH]c2ccccc2c1CCNCc1ccc(/C=C/C(=O)NO)cc1` [LBH-589 (Panobinostat), Panobinostat], the Fold resistance under setting [6] is reported as 4 fold. Also, the concentration for half-maximal inhibition (IC50) by setting is: under setting [4], 0.01 µM; under setting [7], 0.05 µM.

Regarding `O=c1cc(N2CCOCC2)oc2c(-c3ccccc3)cccc12` [LY294002], the IC50 is, setting by setting: under setting [8], 25 µM; under setting [9], more than 100 µM. In addition, the “Increase in Resistance Day6/Day 1” value under setting [1] was determined as 4 fold.

Regarding `Nc1cccc2c1CN(C1CCC(=O)NC1=O)C2=O` (centres unmarked) [Lenalidomide], the IC50 under setting [4] is more than 25 µM and the half-maximal inhibitory concentration (IC50) under setting [5] was more than 25 µM.

Take `COCCNCc1ccc(-c2cc3nccc(Oc4ccc(NC(=S)NC(=O)Cc5ccc(F)cc5)cc4F)c3s2)nc1` [MGCD-265]: the Fold resistance under setting [6] is given as more than 8 fold. Also, the IC50 under setting [4] was 3.14 µM and the 50% inhibitory concentration (IC50) under setting [5] is more than 25 µM.

With `NC1(c2ccc(-c3nc4ccn5c(=O)[nH]nc5c4cc3-c3ccccc3)cc2)CCC1` [MK-2206], the Fold resistance under setting [6] amounted to 4 fold. Besides, the half-inhibitory concentration (IC50) is, setting by setting: under setting [4], 3.14 µM; under setting [5], 13.4 µM.

With `Cc1ccc(NC(=O)c2ccc(CN3CCN(C)CC3)cc2)cc1Nc1nc(-c2cccnc2)cs1` [Masitinib (AB1010), Masitinib], the IC50 is 13.4 µM under setting [4] and 13.4 µM under setting [5].

As to `CC1(C)CNc2cc(NC(=O)c3cccnc3NCc3ccncc3)ccc21` [Motesanib Diphosphate (AMG-706), Motesanib Diphosphate], the IC50 is more than 25 µM under setting [4] and more than 25 µM under setting [5].

For `CCNC(=O)c1noc(-c2cc(C(C)C)c(O)cc2O)c1-c1ccc(CN2CCOCC2)cc1` [NVP-AUY922], the Fold resistance under setting [6] is 24 fold.

Under setting [6], `NCC(=O)Nc1ccc(-n2nc(C(F)(F)F)cc2-c2ccc3c(ccc4ccccc43)c2)cc1` [OSU-03012] showed a Fold resistance of 4 fold. Moreover, the half-inhibitory concentration (IC50) reads like this: under setting [4], 3.14 µM; under setting [5], 13.4 µM.

For the molecule `O=C(NOC[C@H](O)CO)c1ccc(F)c(F)c1Nc1ccc(I)cc1F` [PD0325901], the IC50 (read-out: IC50 (μM) No coat) worked out at 0.2 µM and the concentration for half-maximal inhibition (IC50) (read-out: IC50 (μM) With coat) is more than 25 µM.

In the case of `CC(=O)c1c(C)c2cnc(Nc3ccc(N4CCNCC4)cn3)nc2n(C2CCCC2)c1=O` [PD-0332991], the IC50 was 0.6 µM under setting [8], 50 µM under setting [9], 13.4 µM under setting [4] and 13.4 µM under setting [5]. Under setting [1], the “Increase in Resistance Day6/Day 1” value is 83 fold.

Take `C[C@@H](Oc1cc(-c2cnn(C3CCNCC3)c2)cnc1N)c1c(Cl)ccc(F)c1Cl` [PF-02341066, Crizotinib]: the IC50 was 0.8 µM under setting [8], 25 µM under setting [9], 0.78 µM under setting [4] and 13.4 µM under setting [5]. For the same molecule, the Fold resistance under setting [6] stood at 16 fold. The “Increase in Resistance Day6/Day 1” value under setting [1] is 31 fold.

For `OCCn1cc(-c2cnc3nnn(Cc4ccc5ncccc5c4)c3n2)cn1` [PF-04217903], the IC50 is more than 25 µM under setting [4] and more than 25 µM under setting [7].

Regarding `Cc1[nH]c(/C=C2\C(=O)Nc3ccc(S(=O)(=O)Cc4c(Cl)cccc4Cl)cc32)c(C)c1C(=O)N1CCC[C@@H]1CN1CCCC1` [PHA-665752], under setting [6], the Fold resistance came out at 1 fold. Also, the IC50 reads like this: under setting [4], 3.14 µM; under setting [5], 3.14 µM.

In turn, `Oc1cccc(-c2nc(N3CCOCC3)c3oc4ncccc4c3n2)c1` [PI-103] yielded a Fold resistance under setting [6] of 16 fold. For the same molecule, the IC50 by setting is: (read-out: IC50 (μM) No coat) 0.78 µM; (read-out: IC50 (μM) With coat) 13.4 µM.

With `Cc1ccc(Nc2nccc(N(C)c3ccc4c(C)n(C)nc4c3)n2)cc1S(N)(=O)=O` [Pazopanib Hydrochloride], the IC50 by setting is: under setting [4], more than 25 µM; under setting [5], more than 25 µM.

Under setting [6], `CCCCCCCCCCCCCCCCCCOP(=O)([O-])OC1CC[N+](C)(C)CC1` [Perifosine] returned a Fold resistance of 4 fold. For the same molecule, the IC50 by setting is: under setting [4], 3.14 µM; under setting [5], 13.4 µM.

For the molecule `Cn1cc(C2=C(c3ccc(Cl)cc3Cl)C(=O)NC2=O)c2ccccc21` [SB 216763], the IC50 under setting [4] is more than 25 µM and the IC50 under setting [5] is more than 25 µM.

With `Cn1cc(-c2ccc3nnc(Sc4ccc5ncccc5c4)n3n2)cn1` [SGX-523], the Fold resistance under setting [6] is more than 8 fold. Also, the IC50 is 3.14 µM under setting [4] and more than 25 µM under setting [5].

Consider `Cc1[nH]c(/C=C2\C(=O)Nc3ccc(S(=O)(=O)N(C)c4cccc(Cl)c4)cc32)c(C)c1C(=O)N1CCN(C)CC1` [SU11274 (PKI-SU11274)], for which the Fold resistance under setting [6] is more than 8 fold. For the same molecule, the IC50 is, setting by setting: under setting [4], 3.14 µM; under setting [5], more than 25 µM.

For the molecule `CNC(=O)c1cc(Oc2ccc(NC(=O)Nc3ccc(Cl)c(C(F)(F)F)c3)cc2)ccn1` [Sorafenib Tosylate (Bay 43-9006), Sorafenib Tosylate], the IC50 by setting is: under setting [4], 13.4 µM; under setting [5], 13.4 µM.

In turn, `CCN(CC)CCNC(=O)c1c(C)[nH]c(/C=C2\C(=O)Nc3ccc(F)cc32)c1C` [Sunitinib Malate (Sutent), Sunitinib Malate] registered a Fold resistance under setting [6] of 4 fold. Also, the IC50 under setting [4] was 3.14 µM and the IC50 under setting [5] worked out at 13.4 µM.

As for `COc1cc2c(N3CCN(C(=O)Nc4ccc(OC(C)C)cc4)CC3)ncnc2cc1OCCCN1CCCCC1` [Tandutinib (MLN518), Tandutinib], the IC50 runs as follows: under setting [4], 13.4 µM; under setting [5], 13.4 µM.

The record behind these values is US20150030583A1, “Methods of Treating Serosal Cancer” (SLOAN KETTERING INSTITUTE FOR CANCER RESEARCH, priority 2011, published 2015).
